Experimental data reported in patent US20260285801A1, “LIPID NANOPARTICLE FOR TARGETED DELIVERY OF THERAPEUTIC PAYLOADS” (Trustees of Tufts College, priority 2023, published 2026).

Legend:
[1] = Encapsulation efficiency and mRNA quantity by Ribogreen fluorescence plate assay; assay type: physicochemical; conditions: LNP with mRNA payload formulated with the lipid, 16.8/4.0/2.0/1.0, Lipids:mRNA 25:1; for EE %: (total RNA - unencapsulated RNA)/total RNA
Method: (§1) RNA working solutions (0.134 mg/ml) were prepared in 25 mM sodium acetate buffer using DNase/RNase-free distilled water. Lipid stock solutions (10 mg/mL) were freshly prepared with active lipids or helper lipids (e.g., cholesterol, DOPC or DSPC, or ALC-0159) in ethanol. Reagents were mixed by vortexing and sonicating until the lipids were completely dissolved. A lipid mixture was first prepared by combining the active lipids (e.g., ionizable lipids of the present disclosure) and helper lipids into one vial and mixing thoroughly. Lipid nanoparticles were then formed by mixing the RNA working solution (0.134 mg/ml) and the lipid mixture at 3:1 volume ratio, either manually (for smaller scale) or by Precision Igniter microfluidic device. The formulation solution was transferred into a 300 kDa MWCO Float-A-Lyzer G2 Dialysis Device and dialyzed against at least 1000-folds volume of 50 mM Tris buffer overnight at 4° C. The LNP solution was sterilized with a 0.22 μm filter.
(§2) For LNP characterization, size and polydispersity index (PDI) were determined by dynamic light scattering using a Zetasizer Nano ZS. 10 μL of LNP suspension was transferred to a low-volume cuvette containing 900 μL of Ca^2+ and Mg^2+ free PBS at pH 7.4. Refractive index was set to […] and temperature was set to 25° C. Encapsulation efficiency (EE %) was measured using a fluorescence plate-based assay employing the Ribogreen reagent (Invitrogen) as per PNI Ribogreen assay protocol 16. This assay measures the quantity of mRNA in samples with intact LNPs to determine the quantity of unencapsulated RNA as well as in LNP samples disrupted by triton X-100 to measure the total RNA. EE % is calculated as the difference between the total RNA and the unencapsulated RNA divided by the total RNA.

[2] = LNP size and polydispersity index by dynamic light scattering (Zetasizer Nano ZS); assay type: physicochemical; conditions: LNP with mRNA payload formulated with the lipid; active lipid/Cholesterol/DOPC/DMG-PEG 16.8/4.0/2.0/1.0; Lipids:mRNA 25:1; PBS pH 7.4, 25° C.
Method: as §1, §2

[mRNA] Ug/ml [1] [Ug/ml]	EE % [1] [%]	PDI [2]	Size (nm) [2] [nm]	Structure (SMILES)
69.7	85.2	0.087	153.9	CCCCCCC(CCCC)COC(=O)OCCOC(=O)CCN(CCCN(C)CCCN(CCC(=O)OCCOC(=O)OCC(CCCC)CCCCCC)CCC(=O)OCCOC(=O)OCC(CCCC)CCCCCC)CCC(=O)OCCOC(=O)OCC(CCCC)CCCCCC (stereo not drawn) [Lipid L0088]
61.1	84.3	0.14	121	CCCCCCC(CCCC)CNC(=O)SCCOC(=O)CCN(CCCN(C)CCCN(CCC(=O)OCCSC(=O)NCC(CCCC)CCCCCC)CCC(=O)OCCSC(=O)NCC(CCCC)CCCCCC)CCC(=O)OCCSC(=O)NCC(CCCC)CCCCCC (stereo not drawn) [Lipid L0550]
78	21.2	0.079	151.8	CCC1CC1CCCCSSCCOC(=O)CCN(CCCN(C)CCCN(CCC(=O)OCCSSCCCCC1CC1CC)CCC(=O)OCCSSCCCCC1CC1CC)CCC(=O)OCCSSCCCCC1CC1CC (stereo not drawn) [Lipid L0586]
74.99	60.74	0.102	121.9	CCC(C)CCCCCOC(=O)CCN(CCCN(C)CCCN(CCC(=O)OCCCCCC(C)CC)CCC(=O)OCCCCCC(C)CC)CCC(=O)OCCCCCC(C)CC (stereo not drawn) [Lipid L0630]
88.88	45.59	0.105	122.2	CCC(C)CCCCCOC(=O)CCN(CCC(=O)OCCCCCC(C)CC)CCN(C)CCN(CCC(=O)OCCCCCC(C)CC)CCC(=O)OCCCCCC(C)CC (stereo not drawn) [Lipid L0631]
66.8	94	0.34	186.1	CCCCCCCCC(CCC)OC(=O)OCCOC(=O)CCN(CCCN(C)CCCN(CCC(=O)OCCOC(=O)OC(CCC)CCCCCCCC)CCC(=O)OCCOC(=O)OC(CCC)CCCCCCCC)CCC(=O)OCCOC(=O)OC(CCC)CCCCCCCC (stereo not drawn) [Lipid L0637]
65.1	95.7	0.22	121.5	CCCCCCCCC(CCC)OC(=O)OCCOC(=O)CCN(CCC(=O)OCCOC(=O)OC(CCC)CCCCCCCC)CCN(C)CCN(CCC(=O)OCCOC(=O)OC(CCC)CCCCCCCC)CCC(=O)OCCOC(=O)OC(CCC)CCCCCCCC (stereo not drawn) [Lipid L0638]
99.9	84.5	0.124	186.4	CC(C)CCCCCCSSCCOC(=O)CCN(CCCN(C)CCCN(CCC(=O)OCCSSCCCCCCC(C)C)CCC(=O)OCCSSCCCCCCC(C)C)CCC(=O)OCCSSCCCCCCC(C)C [Lipid L0642]
90	74.2	0.106	161	CC(C)CCCCCCSSCCOC(=O)CCN(CCCn1ccnc1)CCC(=O)OCCSSCCCCCCC(C)C [Lipid L0645]
65.6	90.6	0.1	119.4	CCCCCCCC(CCCCCC)OC(=O)OCCOC(=O)CCN(CCCN(C)CCCN(CCC(=O)OCCOC(=O)OC(CCCCCC)CCCCCCC)CCC(=O)OCCOC(=O)OC(CCCCCC)CCCCCCC)CCC(=O)OCCOC(=O)OC(CCCCCC)CCCCCCC (stereo not drawn) [Lipid L0654]
69.6	96.2	0.1	104.3	CCCCCCCCCC(CC)OC(=O)OCCOC(=O)CCN(CCCN(C)CCCN(CCC(=O)OCCOC(=O)OC(CC)CCCCCCCCC)CCC(=O)OCCOC(=O)OC(CC)CCCCCCCCC)CCC(=O)OCCOC(=O)OC(CC)CCCCCCCCC (stereo not drawn) [Lipid L0659]
71	97	0.11	122.2	CCCCCCCCCC(CC)OC(=O)OCCOC(=O)CCN(CCCN(C)CCCN(CCC(=O)OCCOC(=O)OC(CC)CCCCCCCCC)CCC(=O)OCCOC(=O)OC(CC)CCCCCCCCC)CCC(=O)OCCOC(=O)OC(CC)CCCCCCCCC (stereo not drawn) [Lipid L0660]
65.8	97.2	0.16	107.6	CCCCCCC(CCCC)COC(=O)OCCOC(=O)CCN(CCCN(CCO)CCCN(CCC(=O)OCCOC(=O)OCC(CCCC)CCCCCC)CCC(=O)OCCOC(=O)OCC(CCCC)CCCCCC)CCC(=O)OCCOC(=O)OCC(CCCC)CCCCCC (stereo not drawn) [Lipid L0665]
71.9	96.1	0.26	246.5	CCCCCCC(CCCC)COC(=O)OCCOC(=O)CCN(CCCN(CCCO)CCCN(CCC(=O)OCCOC(=O)OCC(CCCC)CCCCCC)CCC(=O)OCCOC(=O)OCC(CCCC)CCCCCC)CCC(=O)OCCOC(=O)OCC(CCCC)CCCCCC (stereo not drawn) [Lipid L0666]
77.3	97	0.19	101.7	CCCCCCC(CCCC)COC(=O)OCCOC(=O)CCN(CCCN(CCCCO)CCCN(CCC(=O)OCCOC(=O)OCC(CCCC)CCCCCC)CCC(=O)OCCOC(=O)OCC(CCCC)CCCCCC)CCC(=O)OCCOC(=O)OCC(CCCC)CCCCCC (stereo not drawn) [Lipid L0667]
67.1	97	0.11	134.7	CCCCCCC(CCCC)COC(=O)OCCOC(=O)CCN(CCCN(CCCNC(=O)OC(C)(C)C)CCCN(CCC(=O)OCCOC(=O)OCC(CCCC)CCCCCC)CCC(=O)OCCOC(=O)OCC(CCCC)CCCCCC)CCC(=O)OCCOC(=O)OCC(CCCC)CCCCCC (stereo not drawn) [Lipid L0668]
71.22	98.92	0.22	124.4	CCCCCCC(CCCC)COC(=O)OCCOC(=O)CCN(CCCN(CCCN(CCC(=O)OCCOC(=O)OCC(CCCC)CCCCCC)CCC(=O)OCCOC(=O)OCC(CCCC)CCCCCC)CCCN1CCN(C)CC1)CCC(=O)OCCOC(=O)OCC(CCCC)CCCCCC (stereo not drawn) [Lipid L0674]
74	95.5	0.118	97	CCCCCCC(CCCC)COC(=O)NCCNC(=O)CCN(CCCN(C)CCCN(CCC(=O)OCCNC(=O)OCC(CCCC)CCCCCC)CCC(=O)OCCNC(=O)OCC(CCCC)CCCCCC)CCC(=O)NCCNC(=O)OCC(CCCC)CCCCCC (stereo not drawn) [Lipid L0744]
95.3	98.7	0.089	135.3	CCCCCCC(CCCC)COC(=O)OCCOC(=O)CCN(CCCN(CCCNC(=S)NC)CCCN(CCC(=O)OCCOC(=O)OCC(CCCC)CCCCCC)CCC(=O)OCCOC(=O)OCC(CCCC)CCCCCC)CCC(=O)OCCOC(=O)OCC(CCCC)CCCCCC (stereo not drawn) [Lipid L0773]
		0.863	5911	CCCCCCC(CCCC)CNC(=O)NCCNC(=O)CCN(CCCN(C)CCCN(CCC(=O)NCCNC(=O)NCC(CCCC)CCCCCC)CCC(=O)NCCNC(=O)NCC(CCCC)CCCCCC)CCC(=O)NCCNC(=O)NCC(CCCC)CCCCCC (stereo not drawn) [Lipid L0775]
96.7	84	0.107	183	CC(C)CCCCCCCCSSCCOC(=O)CCN(CCCN(C)CCCN(CCC(=O)OCCSSCCCCCCCCC(C)C)CCC(=O)OCCSSCCCCCCCCC(C)C)CCC(=O)OCCSSCCCCCCCCC(C)C [Lipid L0813]
90.2	70	0.093	178.8	CC(C)CCCCCCCCSSCCOC(=O)CCN(CCCN(C)CCCN(CCC(=O)OCCSSCCCCCCCCC(C)C)CCC(=O)OCCSSCCCCCCCCC(C)C)CCC(=O)OCCSSCCCCCCCCC(C)C [Lipid L0814]
93.4	68	0.12	95.98	CCCCC/C=C\CCCOC(=O)CCN(CCCN(C)CCCN(CCC(=O)OCCC/C=C\CCCCC)CCC(=O)OCCC/C=C\CCCCC)CCC(=O)OCCC/C=C\CCCCC [Lipid L0824]
95.2	39	0.082	141	CCCC/C=C\CCOC(=O)CCN(CCCN(C)CCCN(CCC(=O)OCC/C=C\CCCC)CCC(=O)OCC/C=C\CCCC)CCC(=O)OCC/C=C\CCCC [Lipid L0826]
78	92	0.13	98.3	CC/C=C\CCCCOC(=O)CCN(CCCN(C)CCCN(CCC(=O)OCCCC/C=C\CC)CCC(=O)OCCOC(=O)OCC(CCCC)CCCCCC)CCC(=O)OCCCC/C=C\CC (stereo not drawn) [Lipid L0829]

Structure (SMILES)	[mRNA] Ug/ml [1] [Ug/ml]	EE % [1] [%]	PDI [2]	Size (nm) [2] [nm]
CC/C=C\CCCC[Se]CCOC(=O)CCN(CCCN(C)CCCN(CCC(=O)OCC[Se]CCCC/C=C\CC)CCC(=O)OCC[Se]CCCC/C=C\CC)CCC(=O)OCC[Se]CCCC/C=C\CC [Lipid L0825]	91.2	62	0.099	118.7
